From PubChem BioAssay (NCI)
Where “and” joins values, the source holds several entries; their conditions need not be identical. Equal values may be shown once.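 In this assay, cells in 96-well plates receive the compound at five concentrations for 48 hours. Endpoints are linearly interpolated between the surrounding concentrations. GI50 is the concentration that inhibits growth by half. TGI: concentration producing complete growth inhibition.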

Key:
Assay in all cases: NCI tumour cell line growth inhibition, 48 h
786-0 renal = system: 786-0 renal
A498 renal = system: A498 renal
ACHN renal = system: ACHN renal
DU-145 prostate = system: DU-145 prostate
HS 578T breast = system: HS 578T breast
K-562 leukemia = system: K-562 leukemia
M14 melanoma = system: M14 melanoma
NCI-H460 lung = system: NCI-H460 lung
OVCAR-8 ovarian = system: OVCAR-8 ovarian
PC-3 prostate = system: PC-3 prostate
RPMI-8226 leukemia = system: RPMI-8226 leukemia
SF-268 CNS = system: SF-268 CNS
SF-295 CNS = system: SF-295 CNS
SNB-19 CNS = system: SNB-19 CNS
SW-620 colon = system: SW-620 colon
T-47D breast = system: T-47D breast
TK-10 renal = system: TK-10 renal
OVCAR-4 ovarian = system: OVCAR-4 ovarian
U251 CNS = system: U251 CNS

Row | SMILES | TGI (786-0 renal) [µM] | TGI (A498 renal) [µM] | TGI (ACHN renal) [µM] | TGI (DU-145 prostate) [µM] | GI50 (HS 578T breast) | TGI (HS 578T breast) [µM] | TGI (K-562 leukemia) [µM] | TGI (M14 melanoma) [µM] | TGI (NCI-H460 lung) [µM] | TGI (OVCAR-8 ovarian) [µM] | TGI (PC-3 prostate) [µM] | TGI (RPMI-8226 leukemia) [µM] | TGI (SF-268 CNS) [µM] | TGI (SF-295 CNS) [µM] | TGI (SNB-19 CNS) [µM] | TGI (SW-620 colon) [µM] | TGI (T-47D breast) [µM] | TGI (TK-10 renal) [µM] | TGI (OVCAR-4 ovarian) [µM] | TGI (U251 CNS) [µM]
1 | COc1ccc(-c2c(C#N)c(S)n(C3OC(CO)C(O)C(O)C3O)c(=O)c2C#N)cc1 (configuration not stated) | > 100 | > 100 | > 100 | > 100 | 37.3 µM and > 100 µM | > 100 | > 100 | > 100 | > 100 | > 100 | > 100 | > 100 | > 100 | > 100 | > 100 | > 100 | > 100 | > 100 |  | 
2 | Cc1c2cnccc2nc2[nH]c3ccncc3c12 | 63.1 | 47.5 | 13.6 | > 100 |  | > 100 | > 100 | 20.6 | 6.06 | > 100 | > 100 | 19.5 | 7.62 | 52.5 | > 100 | 65.8 | > 100 | 24.3 | > 100 | > 100
3 | CO[C@@H](c1ccccc1)[C@H](O)[C@](O)(c1ccccc1)P(=O)(OC)OC | > 100 | > 100 | > 100 | > 100 |  | > 100 | > 100 | > 100 | > 100 | > 100 | > 100 | > 100 | > 100 | > 100 | > 100 | > 100 | > 100 | > 100 | > 100 | > 100
4 | Cc1ccc(NC(=O)CC(=O)n2nc(C)c(N=Nc3ccc(S(=O)(=O)CCOS(=O)(=O)O)cc3)c2C)cc1 | > 100 | > 100 | > 100 | > 100 |  | > 100 | > 100 | > 100 | > 100 | > 100 | > 100 | > 100 | > 100 | > 100 | > 100 | > 100 | > 100 | > 100 |  | > 100
5 | C=C(Br)CN(CC(=C)Br)C(C)=O | > 100 | > 100 | > 100 | > 100 |  | > 100 | > 100 | > 100 | > 100 | > 100 | > 100 | > 100 | > 100 | > 100 | > 100 | > 100 | > 100 | > 100 | > 100 | > 100
6 | NC1=Nc2ccccc2Sc2nnc(-c3ccc(Cl)cc3)n21 | 82.6 | > 100 | > 100 | > 100 |  | > 100 | 35.7 | > 100 | > 100 | > 100 | > 100 | > 100 | 95.3 | > 100 | > 100 | > 100 | > 100 | > 100 | > 100 | 80.6
7 | CN(C)C(=C1c2cc([N+](=O)[O-])ccc2-c2ccc([N+](=O)[O-])cc21)N(C)C | > 100 | > 100 | > 100 | > 100 |  | > 100 | > 100 | > 100 |  | > 100 | > 100 | 25.3 | > 100 | > 100 | > 100 | > 100 | > 100 | > 100 | > 100 | > 100
8 | Nc1nnc(-c2ccco2)c(-c2ccco2)n1 | > 100 | > 100 | > 100 | > 100 |  | > 100 | > 100 | > 100 | > 100 | > 100 | > 100 | > 100 | > 100 | > 100 | > 100 | > 100 | > 100 | > 100 | > 100 | > 100
9 | CCOC(=O)COc1ccc(/C=C/C(=O)c2ccc(OC)cc2)cc1 | 54.3 | > 100 | > 100 | 76.8 |  | > 100 | > 100 | > 100 |  | > 100 | 62.5 | > 100 | 82.7 | > 100 | > 100 | 61.6 | > 100 | > 100 |  | 34.6
10 | O=C1C(N=Nc2ccc(-c3nc4ccccc4o3)cc2)NC(=S)N1c1ccccc1 (configuration not stated) | > 100 |  | > 100 | > 100 |  | > 100 | > 100 | > 100 | > 100 | > 100 | > 100 |  | > 100 | > 100 | > 100 | > 100 | > 100 | > 100 | > 100 | > 100
11 | Clc1ncnc2c1nc(C#Cc1ccccc1)n2Cc1ccccc1 | > 100 | > 100 | > 100 | 29 |  | > 100 | > 100 | 53 | > 100 | 53.9 | > 100 |  | > 100 | > 100 | > 100 | > 100 | > 100 | > 100 | 35.8 | 34.9
12 | COc1cc2c(c(OC)c1OC)C(=O)[C@H]1OC(=O)N[C@@H]21 | > 100 | > 100 | > 100 | > 100 |  | > 100 | > 100 | > 100 |  | > 100 | > 100 | > 100 | > 100 | > 100 | > 100 | > 100 | > 100 | > 100 | > 100 | > 100
13 | Cc1cc(C)c(C)c(-n2[nH]c(=O)n(C)c2=O)c1C | > 100 | > 100 | > 100 | > 100 |  | > 100 | > 100 | > 100 | > 100 | > 100 | > 100 | > 100 | > 100 | > 100 | > 100 | > 100 | > 100 | > 100 |  | > 100
